Tests used:
Experiment in all cases: concentration in plasma after dosing
Rat [1] = conditions: dosed: Bromodichloromethane, 10 mg/kg, iv, Male, F344
Rat [2] = conditions: dosed: Bromodichloromethane, 10 mg/kg, iv, Male, F344; remark: listed apart in the source
Rat [3] = conditions: dosed: Bromodichloromethane, 10 mg/kg, iv, Female, F344
Rat [4] = conditions: 10 min; dosed: Bromodichloromethane; 10 mg/kg; iv; Female; F344
Rat [5] = conditions: dosed: Bromodichloromethane, 10 mg/kg, iv, Female, F344; remark: listed apart in the source
Rat [6] = conditions: dosed: Bromodichloromethane, 10 mg/kg, iv, Male, F344; remark: listed apart in the source
Rat [7] = conditions: dosed: Bromodichloromethane, 10 mg/kg, iv, Male, F344; remark: listed apart in the source
Rat [8] = conditions: dosed: Bromodichloromethane, 10 mg/kg, iv, Female, F344; remark: listed apart in the source
Rat [9] = conditions: dosed: Bromodichloromethane, 10 mg/kg, iv, Male, F344; remark: listed apart in the source
Rat [10] = conditions: dosed: Bromodichloromethane, 10 mg/kg, iv, Male, F344; remark: listed apart in the source
Rat [11] = conditions: 10 min; dosed: Bromodichloromethane; 10 mg/kg; iv; Male; F344
Rat [12] = conditions: 1 h; dosed: Bromodichloromethane; 10 mg/kg; iv; Female; F344
Rat [13] = conditions: dosed: Bromodichloromethane, 10 mg/kg, iv, Female, F344; remark: listed apart in the source
Rat [14] = conditions: 10 min; dosed: Bromodichloromethane; 10 mg/kg; iv; Male; F344; remark: listed apart in the source
Rat [15] = conditions: dosed: Bromodichloromethane, 10 mg/kg, iv, Female, F344; remark: listed apart in the source
Rat [16] = conditions: dosed: Bromodichloromethane, 10 mg/kg, iv, Male, F344; remark: listed apart in the source
Rat [17] = conditions: 1 h; dosed: Bromodichloromethane; 10 mg/kg; iv; Female; F344; remark: listed apart in the source
Rat [18] = conditions: dosed: Bromodichloromethane, 10 mg/kg, iv, Female, F344; remark: listed apart in the source
Rat [19] = conditions: 1 h; dosed: Bromodichloromethane; 10 mg/kg; iv; Male; F344
Rat [20] = conditions: dosed: Bromodichloromethane, 10 mg/kg, iv, Female, F344; remark: listed apart in the source
Rat [21] = conditions: dosed: Bromodichloromethane, 10 mg/kg, iv, Female, F344; remark: listed apart in the source
Rat [22] = conditions: dosed: Bromodichloromethane, 10 mg/kg, iv, F344
Rat [23] = conditions: 1 h; dosed: Bromodichloromethane; 10 mg/kg; iv; Male; F344; remark: listed apart in the source
Rat [24] = conditions: 4 h; dosed: Bromodichloromethane; 10 mg/kg; iv; Male; F344
Rat [25] = conditions: dosed: Bromodichloromethane, 10 mg/kg, iv, Female, F344; remark: listed apart in the source
Rat [26] = conditions: dosed: Bromodichloromethane, 10 mg/kg, iv, Female, F344; remark: listed apart in the source

Q: Which results are given for `ClC(Cl)Br` [Bromodichloromethane]?
A: concentration in plasma (Rat [1]; 5 min): 2570 ng/mL; concentration in plasma (Rat [1]; 4 h): 21.8 ng/mL; concentration in plasma (Rat [2]; 2 min): 3310 ng/mL; concentration in plasma (Rat [2]; 6 h): 26.3 ng/mL; concentration in plasma (Rat [3]; 5 min): 2300 ng/mL; concentration in plasma (Rat [3]; 4 h): 9.88 ng/mL; concentration in plasma (Rat [4]): 779 ng/mL; concentration in plasma (Rat [5]; 0.25 h): 618 ng/mL; concentration in plasma (Rat [5]; 8 h): 3.69 ng/mL; concentration in plasma (Rat [6]; 5 min): 2210 ng/mL; concentration in plasma (Rat [6]; 2 h): 56.3 ng/mL; concentration in plasma (Rat [7]; 0.25 h): 1340 ng/mL; concentration in plasma (Rat [7]; 8 h): 3.44 ng/mL; concentration in plasma (Rat [8]; 0.25 h): 44.5 ng/mL; concentration in plasma (Rat [8]; 8 h): 6.93 ng/mL; concentration in plasma (Rat [9]; 0.5 h): 402 ng/mL; concentration in plasma (Rat [9]; 2 h): 42.5 ng/mL; concentration in plasma (Rat [10]; 0.25 h): 535 ng/mL; concentration in plasma (Rat [10]; 8 h): 6.97 ng/mL; concentration in plasma (Rat [11]): 1640 ng/mL; concentration in plasma (Rat [12]): 68 ng/mL; concentration in plasma (Rat [13]; 10 min): 926 ng/mL; concentration in plasma (Rat [13]; 2 h): 18.4 ng/mL; concentration in plasma (Rat [14]): 1310 ng/mL; concentration in plasma (Rat [15]; 2 min): 2280 ng/mL; concentration in plasma (Rat [15]; 6 h): 8.65 ng/mL; concentration in plasma (Rat [16]; 2 min): 2880 ng/mL; concentration in plasma (Rat [16]; 6 h): 16.1 ng/mL; concentration in plasma (Rat [17]): 92.4 ng/mL; concentration in plasma (Rat [18]; 0.5 h): 67.9 ng/mL; concentration in plasma (Rat [18]; 2 h): 87.6 ng/mL; concentration in plasma (Rat [19]): 151 ng/mL; concentration in plasma (Rat [20]; 2 min): 1680 ng/mL; concentration in plasma (Rat [20]; 6 h): 11.9 ng/mL; concentration in plasma (Rat [21]; 0.5 h): 203 ng/mL; concentration in plasma (Rat [21]; 4 h): 13.8 ng/mL; concentration in plasma (Rat [22]; 2 min, Female): 2590 ng/mL; concentration in plasma (Rat [22]; 2 min, Male): 2820 ng/mL; concentration in plasma (Rat [22]; 5 min, Female): 1170 ng/mL; concentration in plasma (Rat [22]; 5 min, Male): 1100 ng/mL; concentration in plasma (Rat [22]; 10 min, Female): 589 ng/mL; concentration in plasma (Rat [22]; 10 min, Male): 1070 ng/mL; concentration in plasma (Rat [22]; 0.25 h, Female): 70.4 ng/mL; concentration in plasma (Rat [22]; 0.25 h, Male): 1070 ng/mL; concentration in plasma (Rat [22]; 0.5 h, Female): 312 ng/mL; concentration in plasma (Rat [22]; 0.5 h, Male): 220 ng/mL; concentration in plasma (Rat [22]; 1 h, Female): 62.1 ng/mL; concentration in plasma (Rat [22]; 1 h, Male): 105 ng/mL; concentration in plasma (Rat [22]; 2 h, Female): 63.4 ng/mL; concentration in plasma (Rat [22]; 2 h, Male): 60.8 ng/mL; concentration in plasma (Rat [22]; 4 h, Female): 7.81 ng/mL; concentration in plasma (Rat [22]; 4 h, Male): 15.7 ng/mL; concentration in plasma (Rat [22]; 6 h, Female): 7.86 ng/mL; concentration in plasma (Rat [22]; 6 h, Male): 31.4 ng/mL; concentration in plasma (Rat [22]; 8 h, Female): 6.28 ng/mL; concentration in plasma (Rat [22]; 8 h, Male): 4.65 ng/mL; concentration in plasma (Rat [22]; 12 h, Male): 3.96 ng/mL; concentration in plasma (Rat [23]): 186 ng/mL; concentration in plasma (Rat [24]): 11.1 ng/mL; concentration in plasma (Rat [25]; 0.5 h): 307 ng/mL; concentration in plasma (Rat [25]; 2 h): 40.2 ng/mL; concentration in plasma (Rat [26]; 0.25 h): 341 ng/mL; concentration in plasma (Rat [26]; 8 h): 10.7 ng/mL

From EPA's CvTdb concentration-time database
